The source of these data is the METLIN SMRT retention time set (Domingo-Almenara et al. 2019).

The nature of the data set: gradient 5% acetonitrile 3 min, to 50% in 2 min, to 85% in 15 min, held 3 min, 100 µL/min. Particulars: column: Zorbax Extend-C18 2.1 x 50 mm; eluents: water / acetonitrile, 0.1% formic acid. Put shortly: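 The system's dead and dwell volumes were 40 μL and 900 μL, with a Zorbax Extend-C18 column (2.1 × 50 mm, 1.8 μm) run at 100 μL/min in water and acetonitrile containing 0.1% formic acid each. Pure standards were analyzed in mixtures of ~100 molecules by HPLC–quadrupole time-of-flight mass spectrometry in positive and negative ionization mode. Retention time was assigned from computationally picked, manually inspected adduct peaks.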
Compound `CCOC(=O)c1c(NC(=O)CN2CCN(CC)CC2)sc(C)c1C` showed an RP-LC retention time of 596 s.

As for `COc1ccc(-c2cn3ccn(-c4ccc(F)cc4)c(=O)c3n2)cc1OC`, the RP-LC retention time turned out to be 738 s.

`Cc1ccc(Sc2nccnc2N2CCCC(C(=O)NC(C)c3ccccc3)C2)cc1` (stereo not drawn) came in with an RP-LC retention time of 1140 s.

`COc1ccccc1N1CCN(c2cc(SCC(=O)NC3CCCCC3)ncn2)CC1` yielded an RP-LC retention time of 875 s.

`O=C(NCCc1c[nH]c2ccc(Cl)cc12)c1cn2cc(Cl)ccc2n1`: the RP-LC retention time is 886 s.

Compound `COc1cccc(CCC(=O)N2CCN(c3nc(CN4CCC(C)CC4)cs3)CC2)c1` had an RP-LC retention time of 681 s.

`COc1cccc(OC)c1-c1cc(C(=O)NC2(C(=O)O)C3CC4CC(C3)CC2C4)nn1-c1ccc(C(=O)N(C)CCCN(C)C)cc1C(C)C` (stereo not drawn) yielded an RP-LC retention time of 860 s.

The compound `CCC(C)n1c(=O)c2ccccc2n(Cc2nc(-c3cc(OC)cc(OC)c3)no2)c1=O` (stereo not drawn) had an RP-LC retention time of 1180 s.

In turn, `NC(=O)c1ccsc1NC(=O)c1c[nH]c2ccccc12` yielded an RP-LC retention time of 673 s.

Consider `COc1ccc(NC(=O)C2CCN(S(=O)(=O)c3ccc4[nH]c(=O)sc4c3)CC2)c(OC)c1`, for which the RP-LC retention time was 774 s.

As to `Cc1cnc(C(=O)N2CCC(N3CC(OCC4CC4)C34CCOCC4)CC2)cn1` (stereo not drawn), the RP-LC retention time was 586 s.

As to `O=C(Nc1ccc2c(c1)OCCO2)c1ccc(-c2ccnc(N3CCCC3)n2)cc1`, the RP-LC retention time is 768 s.

`Cc1ccc(-c2nc3cc(C)ccn3c2Nc2ccc3c(c2)OCCO3)cc1` registered an RP-LC retention time of 721 s.

As for `Cc1nc2ccn(Cc3cccnc3)c(=O)c2cc1C(=O)NCc1ccco1`, the RP-LC retention time was found to be 575 s.

As to `CC(Oc1ccccc1)C(=O)N1CCN(c2nc(CN3CCOCC3)cs2)CC1` (stereo not drawn), the RP-LC retention time turned out to be 621 s.

As for `Cc1nc(-c2cn(C)c3ncccc23)sc1C(=O)Nc1ccc(Cl)cc1`, the RP-LC retention time is 1060 s.

For `O=C(CCc1c(-c2ccc(Cl)cc2)nc2ccccn12)Nc1cccc(C(F)(F)F)c1`, the RP-LC retention time amounted to 782 s.

Consider `O=C(Cc1c[nH]c2ccccc12)N1CCC(NS(=O)(=O)c2ccc(F)cc2)CC1`, for which the RP-LC retention time came out at 781 s.

In turn, `COc1ccc(C2(CNC(=O)C(=O)NCC3COc4ccccc4O3)CCOCC2)cc1` (stereo not drawn) yielded an RP-LC retention time of 899 s.

`Cc1cc(C)n(Cc2nc(-c3ccc(NC(=O)c4ccsc4)cc3)oc2C)n1`: the RP-LC retention time was 940 s.

The compound `Cc1ccc(-c2nccn3cc(C(=O)N4CCN(CC(C)C)CC4)nc23)cc1` showed an RP-LC retention time of 656 s.

In turn, `COc1cc(CNC(=O)C2CCCN(c3nccnc3Oc3ccccc3)C2)cc(OC)c1` (stereo not drawn) had an RP-LC retention time of 929 s.

For the compound `O=C(Nc1ccc(N2CCOCC2)nc1)NC1CCCC1`, the RP-LC retention time was determined as 585 s.

`Cc1nnc(NC(=O)CN2CCCCC2c2nc(C3CC3)no2)s1` (stereo not drawn): the RP-LC retention time was determined as 755 s.

`CCC(CC)NC(=O)C1Cn2cccc2C(=O)N1C` (stereo not drawn) returned an RP-LC retention time of 661 s.

`CCCn1c(C)cnc1C1CN(S(=O)(=O)c2ccc(Cl)c(Cl)c2)C1` showed an RP-LC retention time of 724 s.

`Cc1ccc(-c2nnc(-c3cccnc3NCCCN3CCOCC3)o2)cc1` came in with an RP-LC retention time of 690 s.

`Cc1ccccc1-c1noc2ncnc(N3CCN(c4ccccn4)CC3)c12`: the RP-LC retention time came to 673 s.

`CCN1C(=O)c2cc(C(=O)Nc3cc(C)cc(C)c3)nn2CC1(C)C(=O)NC1CCCC1` (stereo not drawn): the RP-LC retention time is 917 s.

In the case of `CCCn1cc(CCNC(=O)c2ccccc2Br)c2cccnc21`, the RP-LC retention time came to 748 s.

`CC(C)(C)c1ccc(NC(=O)NCCN2CCN(S(C)(=O)=O)CC2)cc1` gave an RP-LC retention time of 606 s.

`Cc1ccc(Cn2c(=O)c3sccc3n(Cc3nc(-c4ccccc4)no3)c2=O)cc1` displayed an RP-LC retention time of 1150 s.

Take `O=c1n(Cc2ccc3c(c2)OCO3)nc2c(-c3nc(-c4ccccc4)no3)cccn12`: the RP-LC retention time stood at 944 s.

On to `O=C(c1ccccc1Br)N1CCCN(C(=O)C2CC2)c2ccccc21`, for which the RP-LC retention time worked out at 746 s.

As for `Cc1ccc(C(=O)NC2CCN(c3nnc4ccccn34)CC2)cc1N1CCCC1=O`, the RP-LC retention time turned out to be 596 s.

As to `COc1ccc(Cl)cc1NC(=O)C(C)Oc1cc(C(F)(F)F)c2c(C)nn(C)c2n1` (stereo not drawn), the RP-LC retention time came to 1200 s.

With `CS(=O)(=O)N1CC(n2cc(C(=O)NCC3CC3)nn2)C1`, the RP-LC retention time is 645 s.

The compound `CCCCn1c(N)c(C(=O)OCC)c2nc3ccccc3nc21` registered an RP-LC retention time of 613 s.

`Cc1ccc(N2CCN(C(=O)c3ccc(Cn4cncn4)cc3)CC2)c(C)c1` gave an RP-LC retention time of 867 s.

`Cc1ccc(C)c(N2CCN(C(=O)c3ccc4c(c3)N(C)C(=O)C3CCCCN43)CC2)c1` (stereo not drawn) showed an RP-LC retention time of 1180 s.

The compound `O=C(c1ccc(F)cc1)N1CCC(n2nc(-c3ccsc3)ccc2=O)CC1` registered an RP-LC retention time of 816 s.

As to `CCc1nc(-c2csc(S(=O)(=O)N3CCCC(C(=O)Nc4cccc(C)c4C)C3)c2)no1` (stereo not drawn), the RP-LC retention time came to 1060 s.

Compound `Cc1cccc(-c2nc(N)n(C(=O)C(C)C)n2)c1` showed an RP-LC retention time of 970 s.

The compound `CCOc1ccc(-c2nc(CN3C(=O)C(O)(c4ccccc4)c4ccccc43)c(C)o2)cc1` (stereo not drawn) returned an RP-LC retention time of 1110 s.

`O=C(NCCCn1ncccc1=O)c1ccc(S(=O)(=O)N2CCCC2)cc1` showed an RP-LC retention time of 621 s.

The compound `Cc1noc(C)c1S(=O)(=O)NCCn1c(C)cnc1-c1ccncc1` yielded an RP-LC retention time of 570 s.

The compound `CSc1ccc(NC(=O)C2CCN(c3cncnc3N3CCOCC3)CC2)cc1` had an RP-LC retention time of 669 s.

The compound `CC(C)n1cc(S(=O)(=O)Nc2cccc(Cl)c2)c2cccnc21` returned an RP-LC retention time of 946 s.

For the compound `COc1ccccc1N1CCN(c2cc(SCC(=O)Nc3cccc(Cl)c3C)ncn2)CC1`, the RP-LC retention time was found to be 1110 s.

In turn, `Cc1ccc(-c2ncc(C(=O)Nc3cc(F)ccc3F)c(-c3ccncc3)n2)cc1` registered an RP-LC retention time of 988 s.

Turning to `CCN1c2ccccc2C(=O)NC12CCN(C(=O)NCc1ccccc1)CC2`, the RP-LC retention time came out at 881 s.

The compound `CCC1=CC2CN3CCc4c([nH]c5ccccc45)[C@@](C(=O)OC)(C2)C13` gave an RP-LC retention time of 681 s.

`O=C(Nc1cccc(Br)c1)N1CCc2nc(-c3ccc(Cl)cc3)ncc2C1` had an RP-LC retention time of 1190 s.

The compound `O=C(Nc1ccc2c(c1)OCO2)C1CCN(c2cnc3nccnc3c2)CC1` returned an RP-LC retention time of 690 s.

In the case of `COCCN1C(=O)Cc2ccccc2C1C(=O)NCc1ccc(SC)cc1` (stereo not drawn), the RP-LC retention time stood at 771 s.

With `CCOC(=O)c1c(C)[nH]c(C)c1S(=O)(=O)N1CCC(C(=O)N2CCc3ccccc3C2)CC1`, the RP-LC retention time was 837 s.

`CCCc1nc(-n2cccc2)sc1C(=O)Nc1ccc(OC)cc1F`: the RP-LC retention time was determined as 1150 s.

As to `COc1ccc(NC(=O)c2cc(C)n3nc(-c4ccco4)cc3n2)cc1OC`, the RP-LC retention time came to 933 s.
